# Test results: US11242337B2, “Compounds useful for treating gastrointestinal tract disorders” (Ardelyx, Inc., priority 2017, dated 2022)
# Tests used:
# [1] = biological target: T1, NHE3 (Homo sapiens, UniProt P48764); test: Cell-based assay of NHE-3 activity (pre-incubation inhibition), human; conditions: human Preincubation; for pIC50: 0-30 μM test compound
# T1 construct: expressed in transfected cells
# T1 sequence (P48764 26-834): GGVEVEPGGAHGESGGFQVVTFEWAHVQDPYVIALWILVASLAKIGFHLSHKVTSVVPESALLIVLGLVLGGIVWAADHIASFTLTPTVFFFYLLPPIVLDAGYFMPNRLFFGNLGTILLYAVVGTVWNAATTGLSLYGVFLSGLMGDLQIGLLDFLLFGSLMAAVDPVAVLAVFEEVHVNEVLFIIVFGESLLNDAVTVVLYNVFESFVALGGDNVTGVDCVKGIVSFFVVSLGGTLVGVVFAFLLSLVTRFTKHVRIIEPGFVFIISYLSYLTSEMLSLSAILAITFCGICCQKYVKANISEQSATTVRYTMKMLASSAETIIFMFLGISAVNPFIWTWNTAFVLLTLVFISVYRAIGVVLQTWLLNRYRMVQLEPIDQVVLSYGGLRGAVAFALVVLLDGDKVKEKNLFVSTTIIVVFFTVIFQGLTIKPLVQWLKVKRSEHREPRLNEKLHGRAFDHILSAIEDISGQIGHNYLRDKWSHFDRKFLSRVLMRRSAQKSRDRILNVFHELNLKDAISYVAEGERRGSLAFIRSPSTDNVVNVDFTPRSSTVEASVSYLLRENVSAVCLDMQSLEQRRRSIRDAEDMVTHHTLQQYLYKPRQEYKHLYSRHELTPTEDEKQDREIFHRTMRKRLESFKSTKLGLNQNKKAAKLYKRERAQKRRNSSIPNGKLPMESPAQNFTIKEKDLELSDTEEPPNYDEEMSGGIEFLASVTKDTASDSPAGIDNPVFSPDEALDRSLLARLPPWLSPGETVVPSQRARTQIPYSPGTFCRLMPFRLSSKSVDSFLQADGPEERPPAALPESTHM
# T1 sequence (Q99653 2-195 partner limits assumed): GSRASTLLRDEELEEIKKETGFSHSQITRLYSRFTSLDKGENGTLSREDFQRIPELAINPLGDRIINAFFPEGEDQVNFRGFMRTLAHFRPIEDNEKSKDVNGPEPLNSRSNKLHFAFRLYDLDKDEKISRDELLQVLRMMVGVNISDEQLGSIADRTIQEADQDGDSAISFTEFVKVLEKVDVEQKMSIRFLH
# How it was run: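 PS120 fibroblasts stably expressing human NHE3 and NHERF2, loaded 30 min at 37 °C with 5 μM BCECF-AM in NH4Cl buffer, then acidified 10 min at room temperature in Na+-free buffer with 0–30 μM compound. Initial rate of BCECF fluorescence ratio change (FLIPR) per minute taken as Na+/H+ activity.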
# [2] = biological target: T1, NHE3; test: Cell-based assay of NHE-3 activity (persistent inhibition), human; conditions: human Persistence, 60 min incubation then washout
# How it was run: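 PS120 fibroblasts expressing human NHE3 with NHERF2 exposed to 0-30 μM compound for 60 min at RT, then washed out; cells acid-loaded by NH4Cl prepulse with BCECF-AM and Na+-free buffer. Na+-driven pH recovery started 10 min post-washout; initial rate of BCECF ratio change (FLIPR) taken as activity.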
Compound,% inhibition [1],pIC50 [1],% inhibition [2],pIC50 [2]
"Cc1cc(Cl)cc2c1C[C@H](N1CCC[C@@H](N(C)C)C1)[C@H]2Oc1ccc(S(=O)(=O)NCCOCCOCCNC(=O)NCCCCNC(=O)NCCOCCOCCNS(=O)(=O)c2ccc(O[C@H]3c4cc(Cl)cc(C)c4C[C@@H]3N3CCC[C@@H](N(C)C)C3)cc2)cc1 [Example 28, 3-[2-(2-[2-[(4-[[(1S,2S)-6-Chloro-2-[(3R)-3-(dimethylamino)piperidin-1-yl]-4-methyl-2,3-dihydro-1H-inden-1-yl]oxy]benzene)sulfonamido]ethoxy]ethoxy)ethyl]-1-[4-([[2-(2-[2-[(4-[[(1S,2S)-6-chloro-2-[(3R)-3-(dimethylamino)piperidin-1-yl]-4-methyl-2,3-dihydro-1H-inden-1-yl]oxy]benzene)sulfonamido]ethoxy]ethoxy)ethyl]carbamoyl]amino)butyl]urea; bis(trifluoroacetic acid)]",C (>70%),C (NHE3 pIC50 > 7),C (>70%),C (NHE3 pIC50 > 7)
"3-[2-(2-[2-[(4-[[(1S,2S)-4,6-Dichloro-2-[(3R)-3-[methyl(propan-2-yl)amino]piperidin-1-yl]-2,3-dihydro-1H-inden-1-yl]oxy]benzene) sulfonamido]ethoxy]ethoxy)ethyl]-1-[4-([[2-(2-[2-[(4-[[(1S,2S)-4,6-dichloro-2-[(3R)-3-[methyl(propan-2-yl)amino]piperidin-1-yl]-2,3-dihydro-1H-inden-1-yl]oxy]benzene)sulfonamido]ethoxy]ethoxy)ethyl]carbamoyl]amino)butyl]urea; bis(trifluoroacetic acid) [Example 78]",C (>70%),,C (>70%),
"O=C(NCCCCNC(=O)NCCOCCOCCNS(=O)(=O)c1ccc(O[C@H]2c3cc(Cl)cc(Cl)c3C[C@@H]2N2CCNCC2)cc1)NCCOCCOCCNS(=O)(=O)c1ccc(O[C@H]2c3cc(Cl)cc(Cl)c3C[C@@H]2N2CCNCC2)cc1 [Example 31, 3-[2-(2-[2-[(4-[[(1S,2S)-4,6-Dichloro-2-(piperazin-1-yl)-2,3-dihydro-1H-inden-1-yl]oxy]benzene)sulfonamido]ethoxy]ethoxy)ethyl]-1-[4-([[2-(2-[2-[(4-[[(1S,2S)-4,6-dichloro-2-(piperazin-1-yl)-2,3-dihydro-1H-inden-1-yl]oxy]benzene)sulfonamido]ethoxy]ethoxy)ethyl]carbamoyl]amino)butyl]urea; bis(trifluoroacetic acid)]",C (>70%),,C (>70%),
"N#Cc1cc(Cl)cc2c1C[C@H](N1CCNCC1)[C@H]2Oc1ccc(S(=O)(=O)NCCOCCOCCNC(=O)NCCCCNC(=O)NCCOCCOCCNS(=O)(=O)c2ccc(O[C@H]3c4cc(Cl)cc(C#N)c4C[C@@H]3N3CCNCC3)cc2)cc1 [Example 41, 3-[2-(2-[2-[(4-[[(1S,2S)-6-Chloro-4-cyano-2-(piperazin-1-yl)-2,3-dihydro-1H-inden-1-yl]oxy]benzene)sulfonamido]ethoxy]ethoxy)ethyl]-1-[4-([[2-(2-[2-[(4-[[(1S,2S)-6-chloro-4-cyano-2-(piperazin-1-yl)-2,3-dihydro-1H-inden-1-yl]oxy]benzene)sulfonamido]ethoxy]ethoxy)ethyl]carbamoyl]amino)butyl]urea; bis(trifluoroacetic acid)]",C (>70%),C (NHE3 pIC50 > 7),C (>70%),C (NHE3 pIC50 > 7)

# The remaining lines, values ahead:
% inhibition [1],pIC50 [1],% inhibition [2],pIC50 [2],Compound
C (>70%),C (NHE3 pIC50 > 7),C (>70%),C (NHE3 pIC50 > 7),"N#Cc1cc(Cl)cc2c1C[C@H](N1CCNCC1)[C@H]2Oc1ccc(S(=O)(=O)N2CCC(NC(=O)CCCNC(=O)NCCCCNC(=O)NCCCC(=O)NC3CCN(S(=O)(=O)c4ccc(O[C@H]5c6cc(Cl)cc(C#N)c6C[C@@H]5N5CCNCC5)cc4)CC3)CC2)cc1 [Example 120, N^1,N^18-Bis(1-([4-([(1S,2S)-6-chloro-4-cyano-2-(piperazin-1-yl)-2,3-dihydro-1H-inden-1-yl]oxy)phenyl]sulfonyl)piperidin-4-yl)-6,13-dioxo-5,7,12,14-tetraazaoctadecanediamide]"
C (>70%),C (NHE3 pIC50 > 7),C (>70%),C (NHE3 pIC50 > 7),"Cc1cc(O[C@H]2c3cc(Cl)cc(Cl)c3C[C@@H]2N(C)C)c(F)cc1S(=O)(=O)NCCOCCOCCNC(=O)NCCCCNC(=O)NCCOCCOCCNS(=O)(=O)c1cc(F)c(O[C@H]2c3cc(Cl)cc(Cl)c3C[C@@H]2N(C)C)cc1C [Example 88, 3-[2-(2-[2-[(4-[[(1S,2S)-4,6-Dichloro-2-(dimethylamino)-2,3-dihydro-1H-inden-1-yl]oxy]-5-fluoro-2-methylbenzene)sulfonamido]ethoxy]ethoxy)ethyl]-1-[4-([[2-(2-[2-[(4-[[(1S,2S)-4,6-dichloro-2-(dimethylamino)-2,3-dihydro-1H-inden-1-yl]oxy]-5-fluoro-2-methylbenzene)sulfonamido]ethoxy]ethoxy)ethyl]carbamoyl]amino)butyl]urea]"
C (>70%),C (NHE3 pIC50 > 7),C (>70%),C (NHE3 pIC50 > 7),"Cc1cc(S(=O)(=O)N[C@H]2CCN(CCOCCNC(=O)NCCCCNC(=O)NCCOCCN3CC[C@H](NS(=O)(=O)c4ccc(O[C@H]5c6cc(Cl)cc(Cl)c6C[C@@H]5N(C)C)c(C)c4)C3=O)C2=O)ccc1O[C@H]1c2cc(Cl)cc(Cl)c2C[C@@H]1N(C)C [Example 91, 1-(2-[2-[(3S)-3-[(4-[[(1S,2S)-4,6-Dichloro-2-(dimethylamino)-2,3-dihydro-1H-inden-1-yl]oxy]-3-methylbenzene)sulfonamido]-2-oxopyrrolidin-1-yl]ethoxy]ethyl)-3-(4-[[(2-[2-[(3S)-3-[(4-[[(1S,2S)-4,6-dichloro-2-(dimethylamino)-2,3-dihydro-1H-inden-1-yl]oxy]-3-methylbenzene)sulfonamido]-2-oxopyrrolidin-1-yl]ethoxy]ethyl)carbamoyl]amino]butyl)urea]"
C (>70%),C (NHE3 pIC50 > 7),C (>70%),C (NHE3 pIC50 > 7),"N#Cc1cc(Cl)cc2c1C[C@H](N1CCNCC1)[C@H]2Oc1ccc(S(=O)(=O)NCCOCCOCCNC(=O)NCCCCNC(=O)NCCOCCOCCNS(=O)(=O)c2ccc(O[C@H]3c4cc(Cl)cc(C#N)c4C[C@@H]3N3CCNCC3)c(F)c2)cc1F [Example 43, 3-[2-(2-[2-[(4-[[(1S,2S)-6-Chloro-4-cyano-2-(piperazin-1-yl)-2,3-dihydro-1H-inden-1-yl]oxy]-3-fluorobenzene)sulfonamido]ethoxy]ethoxy)ethyl]-1-[4-([[2-(2-[2-[(4-[[(1S,2S)-6-chloro-4-cyano-2-(piperazin-1-yl)-2,3-dihydro-1H-inden-1-yl]oxy]-3-fluorobenzene)sulfonamido]ethoxy]ethoxy)ethyl]carbamoyl]amino)butyl]urea; bis(trifluoroacetic acid)]"
